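1) Cells in 96-well plates. 2) Compound, 48 h, 5 concentrations. 3) Linear interpolation between surrounding doses. 4) Unreached endpoint = highest concentration. The concentration for 50% growth inhibition is given as GI50.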 Calls of active or inactive are those of the source. Cut-off read from the data, not from the text of the source: active = GI50 up to about 1.1 µM and inactive = higher.
Tests used:
Assay in all cases: NCI tumour cell line growth inhibition, 48 h
[1] = test system: UACC-62
[2] = test system: HCC 2998
[3] = test system: NCI-H23
[4] = test system: MCF7
[5] = test system: BT-549
[6] = test system: OVCAR-5
[7] = test system: OVCAR-3
[8] = test system: ACHN
[9] = test system: UACC-257
[10] = test system: COLO 205
[11] = test system: RPMI-8226
[12] = test system: SW-620
[13] = test system: T47D
[14] = test system: OVCAR-4
[15] = test system: MDA-N
[16] = test system: XF498
[17] = test system: KM-20L2
[18] = test system: LXFL 529
[19] = test system: M19-MEL

With `O=C(NCCNCCCNC(=O)c1cc(-c2ccccc2)nc2ccccc12)c1cccc(OCc2ccccc2)c1OCc1ccccc1` the GI50 [1] was 1.93 µM (inactive), the GI50 [2] was 1.26 µM (inactive) and the GI50 [3] was 1.83 µM (inactive). For the same molecule, the GI50 [4] was 1.66 µM (inactive), the GI50 [5] was 1.72 µM (inactive) and the GI50 [6] was 1.91 µM (inactive). The GI50 [7] was 1.95 µM (inactive), the GI50 [8] was 1.73 µM (inactive) and the GI50 [9] was 1.83 µM (inactive). For the same molecule, the GI50 [10] was 1.69 µM (inactive), the GI50 [11] was 2.48 µM (inactive) and the GI50 [12] was 1.77 µM (inactive). For the same molecule, the GI50 [13] was 2.18 µM (inactive), the GI50 [14] was 1.64 µM (inactive) and the GI50 [15] was 1.66 µM (inactive).

With `CC(C)=CCC/C(C)=C/CC/C(C)=C/CC/C(=C/CC/C(C)=C\CC/C(C)=C/CC/C(C)=C/CC/C(C)=C/Cc1cc(O)ccc1O)CO` the GI50 [1] was 1.18 µM (inactive), the GI50 [2] was 9.93 µM (inactive) and the GI50 [3] was 0.979 µM (active). For the same molecule, the GI50 [4] was 2.55 µM (inactive), the GI50 [5] was 3.6 µM (inactive) and the GI50 [6] was 25.4 µM (inactive). The GI50 [7] was 4.42 µM (inactive), the GI50 [8] was 12.4 µM (inactive) and the GI50 [9] was 3.07 µM (inactive). The GI50 [10] was 2.28 µM (inactive), the GI50 [11] was 1.82 µM (inactive) and the GI50 [12] was 8.71 µM (inactive). The GI50 [13] was 6.05 µM (inactive), the GI50 [14] was 2.51 µM (inactive) and the GI50 [15] was 3.21 µM (inactive).

With `Cc1ccccc1NC(=O)C(=O)C1CN(c2ccccc2)N=C1N` (centres undefined) the GI50 [2] was > 100 µM (inactive), the GI50 [3] was > 100 µM (inactive) and the GI50 [16] was > 100 µM (inactive). The GI50 [7] was > 100 µM (inactive), the GI50 [17] was > 100 µM (inactive) and the GI50 [9] was > 100 µM (inactive). The GI50 [18] was > 100 µM (inactive), the GI50 [14] was > 100 µM (inactive) and the GI50 [19] was > 100 µM (inactive).

For `O=C(O)Cc1cccc2c(=O)c3cccc([N+](=O)[O-])c3[nH]c12`, the GI50 [1] was 25 µM (inactive), the GI50 [2] was 60.3 µM (inactive) and the GI50 [3] was > 100 µM (inactive). For the same molecule, the GI50 [4] was 80.9 µM (inactive), the GI50 [5] was 27 µM (inactive) and the GI50 [6] was 36.5 µM (inactive). The GI50 [7] was 99.8 µM (inactive), the GI50 [8] was > 100 µM (inactive) and the GI50 [9] was > 100 µM (inactive). The GI50 [10] was 20.7 µM (inactive), the GI50 [11] was 12.9 µM (inactive) and the GI50 [12] was > 100 µM (inactive). For the same molecule, the GI50 [13] was > 100 µM (inactive), the GI50 [14] was 38.1 µM (inactive) and the GI50 [15] was > 100 µM (inactive).

With `CC(=O)OC(C)(C)C[N+](=O)[O-]` the GI50 [2] was > 100 µM (inactive), the GI50 [3] was > 100 µM (inactive) and the GI50 [6] was > 100 µM (inactive). The GI50 [7] was > 100 µM (inactive), the GI50 [8] was > 100 µM (inactive) and the GI50 [17] was > 100 µM (inactive). For the same molecule, the GI50 [9] was > 100 µM (inactive), the GI50 [10] was > 100 µM (inactive) and the GI50 [18] was > 100 µM (inactive). The GI50 [11] was > 100 µM (inactive), the GI50 [12] was > 100 µM (inactive) and the GI50 [14] was 20 µM (inactive). For the same molecule, the GI50 [19] was > 100 µM (inactive).

In the case of `CC1CCC2(CC1)NC1=C(CC(C)CC1)C1=C2CC(C)CC1` (centres undefined), the GI50 [1] is reported as > 10 µM (inactive), the GI50 [2] is reported as 18.6 µM (inactive) and the GI50 [3] is reported as 20.8 µM (inactive). The GI50 [4] was 17.6 µM (inactive), the GI50 [5] was 19.1 µM (inactive) and the GI50 [6] was 18.7 µM (inactive). The GI50 [7] was 17.6 µM (inactive), the GI50 [8] was 23.3 µM (inactive) and the GI50 [9] was 25.3 µM (inactive). For the same molecule, the GI50 [10] was 20.4 µM (inactive), the GI50 [11] was 23.3 µM (inactive) and the GI50 [12] was 18.9 µM (inactive). The GI50 [13] was 24.3 µM (inactive), the GI50 [14] was 22.2 µM (inactive) and the GI50 [15] was 31.3 µM (inactive).

With `CCC1=CCN(c2cc(C)ccn2)OC1c1ccc(OC)cc1` (centres undefined) the GI50 [1] was 29.4 µM (inactive), the GI50 [2] was 40.6 µM (inactive) and the GI50 [3] was 34 µM (inactive). For the same molecule, the GI50 [6] was 26.5 µM (inactive), the GI50 [7] was 42.7 µM (inactive) and the GI50 [8] was 33.5 µM (inactive). The GI50 [17] was 30.3 µM (inactive), the GI50 [9] was 23.6 µM (inactive) and the GI50 [10] was 16.3 µM (inactive). For the same molecule, the GI50 [18] was 28.6 µM (inactive), the GI50 [11] was 22.6 µM (inactive) and the GI50 [12] was 38.1 µM (inactive). The GI50 [14] was 34.8 µM (inactive) and the GI50 [19] was 31.5 µM (inactive).

`Cc1cc(Cl)ccc1/N=C1/NC(=O)C(CC(=O)Nc2cccc(C)c2C)S1` (centres undefined) was tested, and the GI50 [1] was 25.9 µM (inactive), the GI50 [2] was 26.2 µM (inactive) and the GI50 [3] was 18.2 µM (inactive). For the same molecule, the GI50 [16] was 10.7 µM (inactive), the GI50 [6] was 31.7 µM (inactive) and the GI50 [7] was 31.2 µM (inactive). The GI50 [8] was 26 µM (inactive), the GI50 [17] was 29.9 µM (inactive) and the GI50 [9] was 29.5 µM (inactive). The GI50 [10] was 24.3 µM (inactive), the GI50 [11] was 19.7 µM (inactive) and the GI50 [12] was 35.1 µM (inactive). For the same molecule, the GI50 [14] was 26.7 µM (inactive) and the GI50 [19] was 35.1 µM (inactive).

For `CN(C)CCCCN1c2ccccc2Sc2ccc(N=[N+]=[N-])cc21`, the GI50 [1] was 1.88 µM (inactive), the GI50 [2] was 1.66 µM (inactive) and the GI50 [3] was 13.3 µM (inactive). For the same molecule, the GI50 [4] was 2.45 µM (inactive), the GI50 [5] was 11.8 µM (inactive) and the GI50 [6] was 3.3 µM (inactive). For the same molecule, the GI50 [7] was 6.05 µM (inactive), the GI50 [8] was 3.2 µM (inactive) and the GI50 [9] was 1.92 µM (inactive). For the same molecule, the GI50 [10] was 1.72 µM (inactive), the GI50 [11] was 2.29 µM (inactive) and the GI50 [12] was 4.82 µM (inactive). For the same molecule, the GI50 [13] was 4.32 µM (inactive), the GI50 [14] was 6.43 µM (inactive) and the GI50 [15] was 1.82 µM (inactive).

`CSc1nc(NC(=O)O)c(N(C(C)=O)C(=O)O)c(=O)n1C` was tested, and the GI50 [1] was > 100 µM (inactive), the GI50 [2] was > 100 µM (inactive) and the GI50 [16] was > 100 µM (inactive). For the same molecule, the GI50 [6] was > 100 µM (inactive), the GI50 [7] was > 100 µM (inactive) and the GI50 [8] was > 100 µM (inactive). The GI50 [17] was > 100 µM (inactive), the GI50 [9] was > 100 µM (inactive) and the GI50 [10] was > 100 µM (inactive). The GI50 [18] was > 100 µM (inactive), the GI50 [11] was > 100 µM (inactive) and the GI50 [12] was > 100 µM (inactive). The GI50 [14] was > 100 µM (inactive) and the GI50 [19] was > 100 µM (inactive).
